In experiment [1] the target is T1, Tyrosine-protein phosphatase non-receptor type 22 (Homo sapiens, UniProt Q9Y2R2).
T1 sequence (Q9Y2R2 whole entry): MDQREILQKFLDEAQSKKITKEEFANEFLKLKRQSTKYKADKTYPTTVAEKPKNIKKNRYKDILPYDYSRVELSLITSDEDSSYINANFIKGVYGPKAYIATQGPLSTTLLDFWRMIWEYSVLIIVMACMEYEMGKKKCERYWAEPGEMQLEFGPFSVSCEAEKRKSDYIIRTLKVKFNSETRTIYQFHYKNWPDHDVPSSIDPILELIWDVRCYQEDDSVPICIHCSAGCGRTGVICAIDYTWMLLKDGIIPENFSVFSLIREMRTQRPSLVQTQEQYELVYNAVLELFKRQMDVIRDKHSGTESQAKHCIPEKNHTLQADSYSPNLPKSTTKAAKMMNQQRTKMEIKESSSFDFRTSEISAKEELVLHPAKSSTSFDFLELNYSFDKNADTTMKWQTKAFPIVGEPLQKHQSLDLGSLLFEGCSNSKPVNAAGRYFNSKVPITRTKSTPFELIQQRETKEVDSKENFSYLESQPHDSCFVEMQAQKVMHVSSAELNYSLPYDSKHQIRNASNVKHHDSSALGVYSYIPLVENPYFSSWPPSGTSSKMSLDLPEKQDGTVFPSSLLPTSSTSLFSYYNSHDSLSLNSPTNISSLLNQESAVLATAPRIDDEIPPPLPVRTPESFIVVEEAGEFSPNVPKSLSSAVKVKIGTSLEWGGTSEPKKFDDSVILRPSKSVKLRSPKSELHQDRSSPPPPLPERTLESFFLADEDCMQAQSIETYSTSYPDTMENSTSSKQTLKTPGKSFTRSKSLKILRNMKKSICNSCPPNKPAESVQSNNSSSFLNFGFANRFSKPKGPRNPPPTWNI
As to the kind of experiment: Inhibition of Lyp expressed in Escherichia coli assessed as inhibition of p-nitrophenyl phosphate hydrolysis at pH 7 by spectrophotometry.

The target of experiment [2] is T2, Receptor-type tyrosine-protein phosphatase C (Homo sapiens, UniProt P08575).
T2 sequence (P08575 whole entry): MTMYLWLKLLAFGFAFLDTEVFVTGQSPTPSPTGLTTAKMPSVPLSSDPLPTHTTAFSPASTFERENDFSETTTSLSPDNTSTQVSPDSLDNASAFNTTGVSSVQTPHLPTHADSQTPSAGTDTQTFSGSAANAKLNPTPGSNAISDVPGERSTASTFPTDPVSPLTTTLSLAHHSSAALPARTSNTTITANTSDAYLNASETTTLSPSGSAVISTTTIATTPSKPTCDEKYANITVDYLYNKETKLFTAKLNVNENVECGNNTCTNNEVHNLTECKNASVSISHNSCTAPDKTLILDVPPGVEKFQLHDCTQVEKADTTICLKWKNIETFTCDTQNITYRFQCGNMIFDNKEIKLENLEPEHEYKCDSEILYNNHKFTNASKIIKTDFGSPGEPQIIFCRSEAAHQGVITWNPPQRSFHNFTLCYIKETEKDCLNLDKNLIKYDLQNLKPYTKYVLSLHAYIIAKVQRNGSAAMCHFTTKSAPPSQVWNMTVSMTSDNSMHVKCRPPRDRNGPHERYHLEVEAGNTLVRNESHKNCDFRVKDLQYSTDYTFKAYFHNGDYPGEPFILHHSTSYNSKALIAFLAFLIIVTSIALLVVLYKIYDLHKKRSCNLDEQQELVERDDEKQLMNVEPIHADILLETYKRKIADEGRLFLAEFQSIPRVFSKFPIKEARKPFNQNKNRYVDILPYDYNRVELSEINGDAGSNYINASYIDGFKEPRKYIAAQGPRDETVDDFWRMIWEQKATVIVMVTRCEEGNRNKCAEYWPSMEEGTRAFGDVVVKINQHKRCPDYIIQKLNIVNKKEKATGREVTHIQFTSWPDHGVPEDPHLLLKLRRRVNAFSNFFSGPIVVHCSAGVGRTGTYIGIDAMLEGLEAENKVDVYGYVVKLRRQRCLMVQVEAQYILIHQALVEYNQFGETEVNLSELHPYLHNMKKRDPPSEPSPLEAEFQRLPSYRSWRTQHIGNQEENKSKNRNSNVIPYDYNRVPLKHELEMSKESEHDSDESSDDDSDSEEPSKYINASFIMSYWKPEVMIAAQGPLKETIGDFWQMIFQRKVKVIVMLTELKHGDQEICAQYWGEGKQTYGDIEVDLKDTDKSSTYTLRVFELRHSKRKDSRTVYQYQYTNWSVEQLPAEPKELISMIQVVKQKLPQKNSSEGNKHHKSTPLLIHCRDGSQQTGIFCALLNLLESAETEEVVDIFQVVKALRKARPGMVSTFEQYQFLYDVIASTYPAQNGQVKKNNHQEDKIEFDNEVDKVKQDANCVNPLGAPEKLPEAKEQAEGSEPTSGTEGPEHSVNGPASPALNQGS
In words: Inhibition of CD45 expressed in Escherichia coli assessed as inhibition of p-nitrophenyl phosphate hydrolysis at pH 7 by spectrophotometry.

Experiment [3] addresses T3, Dual specificity protein phosphatase CDC14A (Homo sapiens, UniProt Q9UNH5).
T3 sequence (Q9UNH5 whole entry): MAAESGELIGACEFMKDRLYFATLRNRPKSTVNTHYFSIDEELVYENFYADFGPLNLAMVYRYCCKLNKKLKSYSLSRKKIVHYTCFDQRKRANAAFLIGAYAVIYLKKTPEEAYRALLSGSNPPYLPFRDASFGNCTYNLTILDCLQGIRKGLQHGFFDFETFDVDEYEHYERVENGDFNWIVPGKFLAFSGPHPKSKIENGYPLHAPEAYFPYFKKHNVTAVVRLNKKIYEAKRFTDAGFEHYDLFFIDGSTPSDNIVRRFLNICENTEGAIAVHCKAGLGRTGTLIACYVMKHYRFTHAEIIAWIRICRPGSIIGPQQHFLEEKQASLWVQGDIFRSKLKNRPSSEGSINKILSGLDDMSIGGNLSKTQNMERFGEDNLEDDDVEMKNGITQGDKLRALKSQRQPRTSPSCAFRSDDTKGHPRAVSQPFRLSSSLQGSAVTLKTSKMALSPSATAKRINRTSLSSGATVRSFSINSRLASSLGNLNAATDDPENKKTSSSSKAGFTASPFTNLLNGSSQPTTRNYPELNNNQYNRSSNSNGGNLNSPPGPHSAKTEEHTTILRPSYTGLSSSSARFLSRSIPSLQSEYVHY
In words: Inhibition of Cdc14A expressed in Escherichia coli assessed as inhibition of p-nitrophenyl phosphate hydrolysis at pH 7 by spectrophotometry.

For another experiment, the species on record is Mus musculus. As to the kind of experiment: Antiproliferative activity against GM-CSF-stimulated C57/BL6 mouse low density BM-MNC assessed as inhibition of hyperproliferation at 10 uM after 16 hrs by [3H]thymidine incorporation assay. Particulars: C57Bl/6. On the technique in general: Uptake of a labelled nucleoside into DNA is a usual measure of proliferation.

Molecules are shown by their SMILES. Calls of active or inactive are those of the source. The calls are words filed in the database; no cut-off is given here.

A word on the IC50: it is the point on the concentration scale where inhibition reaches its midpoint.

For the compound `Cn1c(-c2ccccc2)c(-c2cn(CCC(=O)Nc3ccc(-c4ccccc4)cc3)nn2)c2cc(C(=O)O)c(O)cc21`, the IC50 in experiment [1] is 25 µM; in experiment [2], 30 µM; in experiment [3] it was greater than 50 µM. The outcome in the experiment listed under Mus musculus was Active.

(Values after ChEMBL document CHEMBL1157613, “Salicylic acid based small molecule inhibitor for the oncogenic Src homology-2 domain containing protein tyrosine phosphatase-2 (SHP2)” (J Med Chem, 2010).)
